We go through six compounds from patent US8840915B2, “Pharmaceutical compositions for sustained release delivery of peptides” (Foresec Pharmaceuticals, LLC, priority 2006, dated 2014).

Data set [1] in a line: Stability of the peptides in liquid polymeric formulations (purity by HPLC, room temperature). It is filed as physicochemical. Conditions: for Stability of the peptides in liquid polymeric formulations: 6% drug load in 50% DLPLG85/15 in NMP, room temperature, purity by HPLC. The procedure: (§1) Poly(DL-lactide-co-glycolide) (PLGA) of an 85/15 ratio of lactide to glycolide having a polydispersity of 1.5 (DLPLG85/15, IV: 0.28) was dissolved in N-methyl-2-pyrrolidone (NMP) to obtain a 50% solution by weight.
(§2) An aliquot from each formulation was taken for in vitro release in phosphate buffer at pH 7.4 containing 0.1% sodium azide at 37° C. and the remaining formulation was used to monitor the stability of the peptides and the polymer at room temperature over time. The time points are 0.125, 1, 2, 5, 7, 14, 21, and 28 days. Purity of the peptides in the sample was determined by HPLC. Molecular weight of the polymer was determined by gel permeation chromatography (GPC) using polystyrene standards with known molecular weights.
(§3) According to prior art, the presence of a nucleophilic group on a peptide can lead to an interaction between the peptide and the biodegradable polymer of a composition. The nucleophilic groups on the peptide can react with the biodegradable polymer to form acylated products and can catalyze the degradation of the biodegradable polymer. It is well known that when octreotide and poly(DL-lactide-co-glycolide) are combined, especially in an organic solution such as NMP, the octreotide will be acylated and the polymer will be degraded rapidly. The N-terminal conjugation of the octreotide in the present invention contains one primary amine, one secondary amine and one C-terminal carboxylic acid group and is expected to interact and/or react with the polymer similarly to the octreotide itself. […] However, the covalently conjugated octreotide was stable even after 56 days under the same condition. […] After 21 days, the molecular weight of the polymer was reduced by 50%. However, for the polymer in the formulation containing covalently conjugated octreotide, more than 90% of the original molecular weight was retained.

Data set [2] is described as follows: In vitro release of octreotide and Pal-PEG-BA-OCT from formulation in DLPLG85/15 solution in NMP; degradation/acylation by HPLC. The data set is classed as physicochemical. The procedure: as §1, §2
And more than 50% of the octreotide detected in the releasing medium was degraded or acylated after 28 days. After 28 days, the polymer matrix was dissolved in acetonitrile, and the polymer was precipitated using water. The octreotide was analyzed by HPLC. […] It would be highly advantageous to prevent such interaction between the peptide and the polymer.

Data set [3] can be described thus: Stability of the polymer in liquid polymeric formulations (molecular weight by GPC, room temperature). It is filed as physicochemical. Conditions: formulation containing the peptide; for Stability of the polymer in liquid polymeric formulations: polymer molecular weight by GPC, room temperature. The procedure: as §1, §2, §3
The nature of data set [4]: In vitro release of ghrelin and deacylated ghrelin from formulations in RG503H solution in mPEG350. The data set is classed as physicochemical. Conditions: about 6% in 40% PLGA RG503H in mPEG350; PBS pH 7.4, 37° C.; two week period; HPLC. As to the method:
40% PLGA RG503H was prepared by appropriately dissolving the polymer in mPEG350. Then ghrelin (Human, Rat 1-5) and deacylated ghrelin (Des-n-Octanoyl-[Ser]^3-ghrelin (Human, Rat 1-5)) were mixed with the polymer solution at about 6% respectively. The formulations were thoroughly mixed to obtain uniform formulations.
The formulation suspensions (about 100 mg) were injected into in 3 mL phosphate buffer saline solution at pH 7.4 with 0.1% sodium azide at 37° C. The receiving fluid was replaced at selected time points with fresh buffer solution, and the removed buffer solution was diluted appropriately with PB at pH 7.4 and was analyzed for drug concentration by HPLC using corresponding standard curves.

Data set [5] can be described thus: In vitro release of lysozyme and palmitoylated lysozyme from injectable polymer solution (RG503H in mPEG350). It is filed as physicochemical. Conditions: about 7% in 40% PLGA RG503H in mPEG350; PBS pH 7.4, 37° C.; UV 280 nm. As to the method: 40% PLGA RG503H was prepared by appropriately dissolving the polymer in mPEG350. Then Palmitoyl-Lysozyme and lysozyme were mixed with the polymer solution at about 7% respectively. The formulations were thoroughly mixed to obtain uniform formulations.
In vitro release of lysozyme and palmitoylated lysozyme from injectable polymer solution. The formulation suspensions (about 100 mg) were injected into in 3 mL phosphate buffer saline solution at pH 7.4 with 0.1% sodium azide at 37° C. The receiving fluid was replaced at selected time points with fresh buffer solution, and the removed buffer solution was diluted appropriately with PB at pH 7.4 and analyzed for drug concentration by UV spectrophotometer at 280 nm against standard curves.

For data set [6] the following is noted: within 24 hours; 50/50 poly(DL-lactide-co-glycolide) having a carboxy terminal group, solution in NMP; cited from earlier work.
For data set [7] the following is noted: in vivo; cited from earlier work.

For the compound `C[C@@H](O)[C@@H]1NC(=O)[C@H](CCCCN)NC(=O)[C@@H](Cc2c[nH]c3ccccc23)NC(=O)[C@H](Cc2ccccc2)NC(=O)[C@@H](NC(=O)[C@H](N)Cc2ccccc2)CSSC[C@@H](C(=O)N[C@H](CO)[C@@H](C)O)NC1=O` [Octreotide, octreotide], the “Stability of the peptides in liquid polymeric formulations” value in data set [1] (Day 7) worked out at 2.3; in data set [1] (Day 14), 0.6; in data set [1] (Day 21) it was 0.3; in data set [1] (Day 56), 0.0. Moreover, the “reaction of the peptide with the polymer” value in data set [1] (after 7 days at room temperature, poly(DL-lactide-co-glycolide) solution in NMP) is reported as “almost completely reacted”. The peptide acylated entry in data set [1] (within 24 hours at room temperature, poly(DL-lactide-co-glycolide) solution in NMP) is recorded as “more than 80%”. Besides, the “peptide remaining in the polymer matrix acylated” value in data set [2] (after 28 days of in vitro release, matrix dissolved in acetonitrile, HPLC) is recorded as “more than 50%”. The “peptide detected in the releasing medium degraded or acylated” value in data set [2] (after 28 days, phosphate buffer pH 7.4, 0.1% sodium azide, 37° C.) is recorded as “more than 50%”. In data set [2] (within 3 hours, phosphate buffer pH 7.4, 0.1% sodium azide, 37° C.), the “peptide detected in the releasing medium degraded or reacted with the polymer” value is reported as “about 30%”. The “Stability of the polymer in liquid polymeric formulations” value in data set [3] (Day 0) is given as 100; in data set [3] (Day 0.1), 95.8; in data set [3] (Day 1), 75.3; in data set [3] (Day 2), 66.1; in data set [3] (Day 3), 65.3; in data set [3] (Day 7), 59.0. Moreover, the results for the “Stability of the polymer in liquid polymeric formulations” value in data set [3] (Day 14) and in data set [3] (Day 21) were 57.1 and 51.3, respectively. Moreover, the “molecular weight of the polymer reduced by” value in data set [3] (after 21 days at room temperature) is reported as 50%.

As for “Des-n-Octanoyl-[Ser]^3-ghrelin (Human, Rat 1-5) [deacylated ghrelin]”, the “in vitro release rate” value in data set [4] is given as “much faster release”.

On to “native lysozyme: Lysozyme (Mw 14,500), unmodified”, for which the “initial in vitro release” value in data set [5] is “significant release initially”.

Take `C[C@@H](O)[C@@H]1NC(=O)[C@H](CCCCN)NC(=O)[C@@H](Cc2c[nH]c3ccccc23)NC(=O)[C@H](Cc2ccccc2)NC(=O)[C@@H](NC(=O)[C@H](N)Cc2ccccc2)CSSC[C@@H](C(=O)N[C@H](CO)[C@@H](C)O)NC1=O` [octreotide acetate]: the “octreotide acylated and/or degraded” value in data set [6] was “more than 80%”.

For Detemir, the circulation half-life in data set [7] is 10.2 ± 1.2 h.

Turning to ghrelin (Human, Rat 1-5), in data set [4], the “in vitro release rate” value was “much slower release rate”.
